Reference: patent USRE48335E1, “Polymyxin derivatives as antimicrobial compounds” (priority 2014, dated 2020)
Values after ≈ are worked out from the molar mass of the structure shown. Positions of bridges follow the written chain, without caps; N, C: chain ends. Non-standard residues stand in square brackets, D forms with d. Residues, ends and D or L forms follow the SMILES beside them. *: point of attachment. Benzoyl(3-CF3) = O=C(c1cccc(C(F)(F)F)c1)*; X10 = O=C(c1cc(F)cc(Cl)c1)*; dNle = CCCC[C@@H](N)C(=O)O; Octanoyl = CCCCCCCC(=O)*; Dab = NCC[C@H](N)C(=O)O; Abu = CC[C@H](N)C(=O)O; Dap = NC[C@H](N)C(=O)O

What was measured:
[1] = tested on: K. pneumoniae FADDI-KP032; test: In vivo efficacy in mouse blood infection model (neutropenic Swiss mice); conditions: compound, free base 4 mg/kg intravenously 2 h after inoculation, blood at 4 h
Method in brief: (§1)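 Neutropenic Swiss mice (cyclophosphamide 150 mg/kg day −4, 100 mg/kg day −1, i.p.) infected i.v. with early log-phase bacteria; 4 mg/kg free base i.v. given 2 h post-inoculation. Blood CFU by cardiac puncture 4 h post-dose; Δlog10 CFU/mL treated versus saline controls.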

Klebsiella pneumoniae = tested on: Klebsiella pneumoniae
Method in brief: (§2)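 Broth microdilution MICs following CLSI standards in cation-adjusted Mueller-Hinton broth. Lipopeptides tested as TFA salts; polymyxin B sulphate served as control.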

Pseudomonas aeruginosa = tested on: Pseudomonas aeruginosa
Method in brief: as §2

Acinetobacter baumannii = tested on: Acinetobacter baumannii
Method in brief: as §2

Enterobacter cloacae = tested on: Enterobacter cloacae
Method in brief: as §2

A. baumannii ATCC 19606 = test: In vivo efficacy in mouse blood infection model (neutropenic Swiss mice); conditions: compound, free base 4 mg/kg intravenously 2 h after inoculation, blood at 4 h
Method in brief: as §1

P. aeruginosa ATCC 27853 = test: as above; conditions: compound, free base 4 mg/kg intravenously 2 h after inoculation, blood at 4 h
Method in brief: as §1

## CCCCCCCC(=O)N[C@@H](CCN)C(=O)N[C@H](C(=O)N[C@@H](CO)C(=O)N[C@H]1CCNC(=O)[C@H]([C@@H](C)O)NC(=O)[C@H](CCN)NC(=O)[C@H](CCN)NC(=O)[C@H]([C@@H](C)O)NC(=O)[C@@H](CC(C)C)NC(=O)[C@H](CCN)NC1=O)[C@@H](C)O [Compound 4] (Octanoyl-[Dab]TS[Dab][Dab][dL]T[Dab][Dab]T; lactam 4-C)
[1]
  Δ log (Treated-Control at 4 h): −1.84 log10 CFU/mL
Klebsiella pneumoniae
  MIC: 1 µg/mL (≈ 0.885 µM)
Pseudomonas aeruginosa
  MIC: 4 µg/mL (≈ 3.54 µM)
  Minimum inhibitory concentration, Pa ATCC 27853: 4 µg/mL (≈ 3.54 µM)
  Minimum inhibitory concentration, Pa FADDI-PA022: 8 µg/mL (≈ 7.08 µM)
  Minimum inhibitory concentration, Pa FADDI-PA025: >32 µg/mL
Acinetobacter baumannii
  MIC: 8 µg/mL (≈ 7.08 µM)
  Minimum inhibitory concentration, Ab A ATCC 17978: 8 µg/mL (≈ 7.08 µM)
  Minimum inhibitory concentration, Ab ATCC 19606: 8 µg/mL (≈ 7.08 µM)
  Minimum inhibitory concentration, Ab FADDI-AB034: 4 µg/mL (≈ 3.54 µM)
Enterobacter cloacae
  Minimum inhibitory concentration, Ec FADDI-EC001: 0.5 µg/mL (≈ 0.442 µM)
  Minimum inhibitory concentration, Ec FADDI-EC003: 0.25 µg/mL (≈ 0.221 µM)
  Minimum inhibitory concentration, Ec FADDI-EC006: 1 µg/mL (≈ 0.885 µM)

## CCCCCCCC(=O)N[C@@H](CCN)C(=O)N[C@H](C(=O)N[C@@H](CCN)C(=O)N[C@H]1CCNC(=O)[C@H]([C@@H](C)O)NC(=O)[C@H](CCN)NC(=O)[C@H](CCN)NC(=O)[C@H](CO)NC(=O)[C@@H](CC(C)C)NC(=O)[C@H](CCN)NC1=O)[C@@H](C)O [Compound 25] (Octanoyl-[Dab]T[Dab][Dab][Dab][dL]S[Dab][Dab]T; lactam 4-C)
[1]
  Δ log (Treated-Control at 4 h): −2.65 log10 CFU/mL
A. baumannii ATCC 19606
  Δ log (Treated-Control at 4 h): 0.27 log10 CFU/mL
Klebsiella pneumoniae
  MIC: 0.25 µg/mL (≈ 0.221 µM)
Pseudomonas aeruginosa
  MIC: >32 µg/mL
  Minimum inhibitory concentration, Pa ATCC 27853: >32 µg/mL
  Minimum inhibitory concentration, Pa FADDI-PA022: 0.5 µg/mL (≈ 0.443 µM)
  Minimum inhibitory concentration, Pa FADDI-PA025: >32 µg/mL
Acinetobacter baumannii
  MIC: 8 µg/mL (≈ 7.08 µM)
  Minimum inhibitory concentration, Ab A ATCC 17978: 4 µg/mL (≈ 3.54 µM)
  Minimum inhibitory concentration, Ab ATCC 19606: 8 µg/mL (≈ 7.08 µM)
  Minimum inhibitory concentration, Ab FADDI-AB034: 4 µg/mL (≈ 3.54 µM)
Enterobacter cloacae
  Minimum inhibitory concentration, Ec FADDI-EC001: <0.125 µg/mL
  Minimum inhibitory concentration, Ec FADDI-EC003: 0.25 µg/mL (≈ 0.221 µM)
  Minimum inhibitory concentration, Ec FADDI-EC006: 0.5 µg/mL (≈ 0.443 µM)

## CC[C@@H]1NC(=O)[C@@H](CC(C)C)NC(=O)[C@H](CCN)NC(=O)[C@@H](NC(=O)[C@H](CN)NC(=O)[C@@H](NC(=O)[C@H](CCN)NC(=O)c2cccc(C(F)(F)F)c2)[C@@H](C)O)CCNC(=O)[C@H]([C@@H](C)O)NC(=O)[C@H](CCN)NC(=O)[C@H](CCN)NC1=O [Compound 106] ({Benzoyl(3-CF3)}-[Dab]T[Dap][Dab][Dab][dL][Abu][Dab][Dab]T; lactam 4-C)
[1]
  Δ log (Treated-Control at 4 h): −2.77 log10 CFU/mL
P. aeruginosa ATCC 27853
  Δ log (Treated-Control at 4 h): −2.33 log10 CFU/mL
Klebsiella pneumoniae
  MIC: 0.25 µg/mL (≈ 0.216 µM)
Pseudomonas aeruginosa
  MIC: 0.5 µg/mL (≈ 0.431 µM)
  Minimum inhibitory concentration, Pa ATCC 27853: 0.5 µg/mL (≈ 0.431 µM)
  Minimum inhibitory concentration, Pa FADDI-PA022: 0.5 µg/mL (≈ 0.431 µM)
  Minimum inhibitory concentration, Pa FADDI-PA025: 2 µg/mL (≈ 1.73 µM)
Acinetobacter baumannii
  MIC: 0.5 µg/mL (≈ 0.431 µM)
  Minimum inhibitory concentration, Ab A ATCC 17978: 0.5 µg/mL (≈ 0.431 µM)
  Minimum inhibitory concentration, Ab ATCC 19606: 0.5 µg/mL (≈ 0.431 µM)
  Minimum inhibitory concentration, Ab FADDI-AB034: 0.25 µg/mL (≈ 0.216 µM)
Enterobacter cloacae
  Minimum inhibitory concentration, Ec FADDI-EC001: 0.25 µg/mL (≈ 0.216 µM)
  Minimum inhibitory concentration, Ec FADDI-EC003: 0.5 µg/mL (≈ 0.431 µM)
  Minimum inhibitory concentration, Ec FADDI-EC006: 0.25 µg/mL (≈ 0.216 µM)

## CC[C@@H]1NC(=O)[C@@H](CC(C)C)NC(=O)[C@H](CCN)NC(=O)[C@@H](NC(=O)[C@H](CN)NC(=O)[C@@H](NC(=O)[C@H](CCN)NC(=O)c2cc(F)cc(Cl)c2)[C@@H](C)O)CCNC(=O)[C@H]([C@@H](C)O)NC(=O)[C@H](CCN)NC(=O)[C@H](CCN)NC1=O [Compound 116] (X10-[Dab]T[Dap][Dab][Dab][dL][Abu][Dab][Dab]T; lactam 4-C)
P. aeruginosa ATCC 27853
  Δ log (Treated-Control at 4 h): −2.81 log10 CFU/mL
A. baumannii ATCC 19606
  Δ log (Treated-Control at 4 h): −1.51 log10 CFU/mL
Klebsiella pneumoniae
  MIC: 0.5 µg/mL (≈ 0.437 µM)
Pseudomonas aeruginosa
  MIC: 0.5 µg/mL (≈ 0.437 µM)
  Minimum inhibitory concentration, Pa ATCC 27853: 0.5 µg/mL (≈ 0.437 µM)
  Minimum inhibitory concentration, Pa FADDI-PA022: 0.5 µg/mL (≈ 0.437 µM)
  Minimum inhibitory concentration, Pa FADDI-PA025: 1 µg/mL (≈ 0.874 µM)
Acinetobacter baumannii
  MIC: 0.5 µg/mL (≈ 0.437 µM)
  Minimum inhibitory concentration, Ab A ATCC 17978: 0.5 µg/mL (≈ 0.437 µM)
  Minimum inhibitory concentration, Ab ATCC 19606: 0.5 µg/mL (≈ 0.437 µM)
  Minimum inhibitory concentration, Ab FADDI-AB034: 0.25 µg/mL (≈ 0.219 µM)
Enterobacter cloacae
  Minimum inhibitory concentration, Ec FADDI-EC001: 0.25 µg/mL (≈ 0.219 µM)
  Minimum inhibitory concentration, Ec FADDI-EC003: 0.25 µg/mL (≈ 0.219 µM)
  Minimum inhibitory concentration, Ec FADDI-EC006: 0.25 µg/mL (≈ 0.219 µM)

## CC[C@@H]1NC(=O)[C@@H](Cc2ccccc2)NC(=O)[C@H](CCN)NC(=O)[C@@H](NC(=O)[C@H](CN)NC(=O)[C@@H](NC(=O)[C@H](CCN)NC(=O)c2cccc(C(F)(F)F)c2)[C@@H](C)O)CCNC(=O)[C@H]([C@@H](C)O)NC(=O)[C@H](CCN)NC(=O)[C@H](CCN)NC1=O [Compound 122] ({Benzoyl(3-CF3)}-[Dab]T[Dap][Dab][Dab][dF][Abu][Dab][Dab]T; lactam 4-C)
P. aeruginosa ATCC 27853
  Δ log (Treated-Control at 4 h): −3.70 log10 CFU/mL
A. baumannii ATCC 19606
  Δ log (Treated-Control at 4 h): −1.58 log10 CFU/mL
Klebsiella pneumoniae
  MIC: 0.5 µg/mL (≈ 0.419 µM)
Pseudomonas aeruginosa
  MIC: 2 µg/mL (≈ 1.68 µM)
  Minimum inhibitory concentration, Pa ATCC 27853: 2 µg/mL (≈ 1.68 µM)
  Minimum inhibitory concentration, Pa FADDI-PA022: 2 µg/mL (≈ 1.68 µM)
  Minimum inhibitory concentration, Pa FADDI-PA025: 2 µg/mL (≈ 1.68 µM)
Acinetobacter baumannii
  MIC: 0.5 µg/mL (≈ 0.419 µM)
  Minimum inhibitory concentration, Ab A ATCC 17978: 0.25 µg/mL (≈ 0.21 µM)
  Minimum inhibitory concentration, Ab ATCC 19606: 0.5 µg/mL (≈ 0.419 µM)
  Minimum inhibitory concentration, Ab FADDI-AB034: 0.5 µg/mL (≈ 0.419 µM)
Enterobacter cloacae
  Minimum inhibitory concentration, Ec FADDI-EC001: 0.5 µg/mL (≈ 0.419 µM)
  Minimum inhibitory concentration, Ec FADDI-EC003: 0.5 µg/mL (≈ 0.419 µM)
  Minimum inhibitory concentration, Ec FADDI-EC006: 0.25 µg/mL (≈ 0.21 µM)

## CCCC[C@H]1NC(=O)[C@H](CCN)NC(=O)[C@@H](NC(=O)[C@H](CN)NC(=O)[C@@H](NC(=O)[C@H](CCN)NC(=O)c2cccc(C(F)(F)F)c2)[C@@H](C)O)CCNC(=O)[C@H]([C@@H](C)O)NC(=O)[C@H](CCN)NC(=O)[C@H](CCN)NC(=O)[C@H]([C@@H](C)O)NC1=O [Compound 123] ({Benzoyl(3-CF3)}-[Dab]T[Dap][Dab][Dab][dNle]T[Dab][Dab]T; lactam 4-C)
P. aeruginosa ATCC 27853
  Δ log (Treated-Control at 4 h): −2.96 log10 CFU/mL
A. baumannii ATCC 19606
  Δ log (Treated-Control at 4 h): −1.53 log10 CFU/mL
Klebsiella pneumoniae
  MIC: 0.5 µg/mL (≈ 0.425 µM)
Pseudomonas aeruginosa
  MIC: 0.5 µg/mL (≈ 0.425 µM)
  Minimum inhibitory concentration, Pa ATCC 27853: 0.5 µg/mL (≈ 0.425 µM)
  Minimum inhibitory concentration, Pa FADDI-PA022: 0.5 µg/mL (≈ 0.425 µM)
  Minimum inhibitory concentration, Pa FADDI-PA025: 2 µg/mL (≈ 1.7 µM)
Acinetobacter baumannii
  MIC: 1 µg/mL (≈ 0.851 µM)
  Minimum inhibitory concentration, Ab A ATCC 17978: 1 µg/mL (≈ 0.851 µM)
  Minimum inhibitory concentration, Ab ATCC 19606: 1 µg/mL (≈ 0.851 µM)
  Minimum inhibitory concentration, Ab FADDI-AB034: 0.5 µg/mL (≈ 0.425 µM)
Enterobacter cloacae
  Minimum inhibitory concentration, Ec FADDI-EC001: 0.5 µg/mL (≈ 0.425 µM)
  Minimum inhibitory concentration, Ec FADDI-EC003: 0.5 µg/mL (≈ 0.425 µM)
  Minimum inhibitory concentration, Ec FADDI-EC006: 1 µg/mL (≈ 0.851 µM)

## C[C@@H]1NC(=O)[C@@H](Cc2ccccc2)NC(=O)[C@H](CCN)NC(=O)[C@@H](NC(=O)[C@H](CN)NC(=O)[C@@H](NC(=O)[C@H](CCN)NC(=O)c2cccc(C(F)(F)F)c2)[C@@H](C)O)CCNC(=O)[C@H]([C@@H](C)O)NC(=O)[C@H](CCN)NC(=O)[C@H](CCN)NC1=O [Compound 126] ({Benzoyl(3-CF3)}-[Dab]T[Dap][Dab][Dab][dF]A[Dab][Dab]T; lactam 4-C)
[1]
  Δ log (Treated-Control at 4 h): −2.68 log10 CFU/mL
P. aeruginosa ATCC 27853
  Δ log (Treated-Control at 4 h): −3.97 log10 CFU/mL
Klebsiella pneumoniae
  MIC: 0.5 µg/mL (≈ 0.424 µM)
Pseudomonas aeruginosa
  MIC: 0.25 µg/mL (≈ 0.212 µM)
  Minimum inhibitory concentration, Pa ATCC 27853: 0.25 µg/mL (≈ 0.212 µM)
  Minimum inhibitory concentration, Pa FADDI-PA022: 1 µg/mL (≈ 0.848 µM)
  Minimum inhibitory concentration, Pa FADDI-PA025: 2 µg/mL (≈ 1.7 µM)
Acinetobacter baumannii
  MIC: 1 µg/mL (≈ 0.848 µM)
  Minimum inhibitory concentration, Ab A ATCC 17978: 1 µg/mL (≈ 0.848 µM)
  Minimum inhibitory concentration, Ab ATCC 19606: 1 µg/mL (≈ 0.848 µM)
  Minimum inhibitory concentration, Ab FADDI-AB034: 1 µg/mL (≈ 0.848 µM)
Enterobacter cloacae
  Minimum inhibitory concentration, Ec FADDI-EC001: 0.5 µg/mL (≈ 0.424 µM)
  Minimum inhibitory concentration, Ec FADDI-EC003: 0.5 µg/mL (≈ 0.424 µM)
  Minimum inhibitory concentration, Ec FADDI-EC006: 0.5 µg/mL (≈ 0.424 µM)
